Consider 44 compounds from patent US20260167656A1, “PHOSPHORAMIDATE COMPOUNDS AND USES THEREOF” (ALLORION THERAPEUTICS INC, priority 2022, published 2026).

A word on the IC50: it is the concentration that gives 50% inhibition.

In assay [1] the test system is non-small cell lung cancer cell line H460. Nature of the assay: H460 proliferation assay in the presence of 3 uM ASP9521 (AKR1C3 specific inhibitor). Format: cell-based, human. The following applies: H460 cells, CellTiter-Glo, 72 hours, in the presence of 3 uM ASP9521 added 4 hours prior to compounds; read-out: CTG H460: Avg IC50 (nM) [Assay Condition: ASP9521]. The procedure, abridged:
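H460 cells pre-incubated 24 h, then exposed to compounds for 72 h at 37 °C, 5% CO2. Viability read by CellTiter-Glo. ASP9521 (3 uM, AKR1C3 inhibitor) added 4 h before compounds.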
(Cellular ATP, detected with luciferase, serves as a proxy for viable cell number.)

Assay [2] has the same test system. Nature of the assay: In vitro human cancer cell line cytotoxicity (proliferation) assay in H460, CellTiter-Glo, 72 hours. Type of assay: cell-based. The following applies: DMSO condition (no AKR1C3 inhibitor), read-out: CTG H460: Avg IC50 (nM) [Assay Condition: DMSO]. The procedure, abridged: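 H460 cells were seeded at 3×10^3 per well and grown 24 h at 37 °C, 5% CO2 before compound addition from 10 mM DMSO stocks. After 72 h further incubation, viability was measured by CellTiter-Glo, and IC50 values in nM were derived from the proliferation data.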

[3] abbreviates: Homo sapiens, NCI-H460, 72 h, H460 cells.

Regarding `C[C@H]1CN1P(=O)(OCc1ccc([N+](=O)[O-])c(Oc2cccc(C(=O)N(C)C)c2)c1)N1C[C@@H]1C` (stereo partly shown) [Example 207], the figures for the IC50 in assay [1] and in assay [2] (setting [3]) were 217 nM and < 10 nM, respectively.
For `O=[N+]([O-])c1ccc2c(c1Oc1cc(F)cc(-c3ncccn3)c1)CC[C@@H]2OP(=O)(N1CC1)N1CC1` [Example 356] the same measures were 1990 nM and < 10 nM.
For `O=[N+]([O-])c1ccc2c(c1Oc1cccc(-n3ccc(F)n3)c1)CC[C@H]2OP(=O)(N1CC1)N1CC1` [Example 445] the same measures were 357 nM and < 10 nM.
For the compound `CC(C)C1CN1P(=O)(OCc1ccc([N+](=O)[O-])c(Oc2cccc(C(=O)N(C)C)c2)c1)N1CC1C(C)C` (stereo not shown) [Example 11], the IC50 in assay [1] is 2050 nM; in assay [2] (setting [3]), ≥ 100 nM.
Regarding `O=C1CCCN1c1cc(Oc2c([N+](=O)[O-])ccc3c2CCC3OP(=O)(N2CC2)N2CC2)ccc1F` (stereo not shown) [Example 427], the IC50 in assay [1] was 756 nM; in assay [2] (H460 cells), < 10 nM.
With `CC(OP(=O)(N1C[C@H]1C)N1C[C@H]1C)c1ccc([N+](=O)[O-])c(Oc2cccc(C(=O)N(C)C)c2)c1` (stereo partly shown) [Example 210], the figures for the IC50 in assay [1] and in assay [2] (setting [3]) were 294 nM and < 10 nM, respectively.
For `O=[N+]([O-])c1ccc2c(c1Oc1ccc(F)c(-c3cn[nH]c3)c1)CC[C@@H]2OP(=O)(N1CC1)N1CC1` [Example 370] the same measures were 967 nM and < 10 nM.
For `C[C@H]1CN1P(=O)(OCc1c(F)c(F)c(OCc2ccc([N+](=O)[O-])c(Oc3ccc(C(=O)N(C)C)cc3)c2)c(F)c1F)N1C[C@@H]1C` (stereo partly shown) [Example 14] the same measures were 553 nM and < 10 nM.
As to `CN(C(=O)c1cccc(Oc2c([N+](=O)[O-])ccc3c2CCC3OP(=O)(N2CC2)N2CC2)c1)c1cnn(C)c1` (racemic) [Example 251], the IC50 in assay [1] is 1090 nM; in assay [2] (H460 cells) it was < 10 nM.
For `Cn1cc(-c2cccc(Oc3c([N+](=O)[O-])ccc4c3CCC4OP(=O)(N3CC3)N3CC3)c2)cn1` (single isomer, unassigned) [Example 77] the same measures were 1890 nM and < 10 nM.
For `Cc1cccc(-c2ccc(Oc3c([N+](=O)[O-])ccc4c3CC[C@H]4OP(=O)(N3CC3)N3CC3)cc2)n1` [Example 279] the same measures were 1310 nM and < 10 nM.
For `O=[N+]([O-])c1ccc2c(c1Oc1cccc(-c3ccccc3)c1)CCC2OP(=O)(N1CC1)N1CC1` (single isomer, unassigned) [Example 31], the IC50 in assay [1] was 1550 nM; in assay [2] (H460 cells), < 10 nM.
Turning to `Cc1ncn(-c2cccc(Oc3c([N+](=O)[O-])ccc4c3CC[C@@H]4OP(=O)(N3CC3)N3CC3)c2)n1` [Example 500], the values for the IC50 in assay [1] and in assay [2] (setting [3]) were 1300 nM and < 10 nM, respectively.
With `CC(OP(=O)(N1C[C@@H]1C)N1C[C@@H]1C)c1ccc([N+](=O)[O-])c(Oc2cccc(C(=O)N(C)C)c2)c1` (single isomer, unassigned) [Example 209], the IC50 in assay [1] was 517 nM; in assay [2] (setting [3]), < 10 nM.
For `O=C(c1cccc(Oc2c([N+](=O)[O-])ccc3c2CCC3OP(=O)(N2CC2)N2CC2)c1)N1CCCCC1` (single isomer, unassigned) [Example 68], the IC50 in assay [1] is 1160 nM; in assay [2] (setting [3]) it was < 10 nM.
As for `O=C(c1cccc(Oc2c([N+](=O)[O-])ccc3c2CCC3OP(=O)(N2CC2)N2CC2)c1)N1CCC(F)(F)C1` (stereo not shown) [Example 102], the IC50 in assay [1] was 919 nM; in assay [2] (H460 cells), < 10 nM.
On to `O=[N+]([O-])c1cc2c(cc1Oc1ccc(-c3ccc(F)cc3)cc1)C(OP(=O)(N1CC1)N1CC1)CC2` (stereo not shown) [Example 144], for which the figures for the IC50 in assay [1] and in assay [2] (setting [3]) were 347 nM and < 10 nM, respectively.
Consider `O=C(c1cccc(Oc2cc3cc(COP(=O)(N4CC4)N4CC4)oc3cc2[N+](=O)[O-])c1)N1CCC(F)(F)C1` [Example 545], for which the IC50 in assay [1] is 970 nM; in assay [2] (H460 cells), < 10 nM.
On to `CC1CN1P(=O)(OCc1ccc([N+](=O)[O-])c(Oc2cccc(C(=O)N(C)C)c2)c1)N1CC1C` (stereo not shown) [Example 206, 3-(3-(dimethylcarbamoyl)phenoxy)-4-nitrobenzyl bis(2-methylaziridin-1-yl)phosphinate], for which the IC50 in assay [1] is 82.3 nM; in assay [2] (setting [3]), < 10 nM.
For the compound `O=C(c1cc(Oc2c([N+](=O)[O-])ccc3c2CCC3OP(=O)(N2CC2)N2CC2)ccc1F)N1CCC1` (racemic) [Example 256], the IC50 in assay [1] was 1240 nM; in assay [2] (H460 cells), < 10 nM.
For `O=[N+]([O-])c1ccc2c(c1Oc1ccc(F)c(OC3CCOCC3)c1)CC[C@@H]2OP(=O)(N1CC1)N1CC1` [Example 495], the values for the IC50 in assay [1] and in assay [2] (setting [3]) were 635 nM and < 10 nM, respectively.
With `Cn1ncc(F)c1-c1cccc(Oc2c([N+](=O)[O-])ccc3c2CCC3OP(=O)(N2CC2)N2CC2)c1` (stereo not shown) [Example 373], the IC50 in assay [1] is 672 nM; in assay [2] (H460 cells), < 10 nM.
For `CN(C)C(=O)c1cncc(Oc2c([N+](=O)[O-])ccc3c2CC[C@@H]3OP(=O)(N2CC2)N2CC2)c1` [Example 252] the same measures were 2640 nM and 10 to 50 nM.
For `O=[N+]([O-])c1ccc2c(c1Oc1ccc(C(F)(F)F)nc1)CCC2OP(=O)(N1CC1)N1CC1` (stereo not shown) [Example 26] the same measures were 298 nM and < 10 nM.
For `O=[N+]([O-])c1ccc2c(c1Oc1ccc(-n3cc(F)cn3)cc1)CCC2OP(=O)(N1CC1)N1CC1` (stereo not shown) [Example 422] the same measures were 821 nM and < 10 nM.
On to `O=[N+]([O-])c1cc2c(cc1Oc1ccc(C3CC3)cc1)C(OP(=O)(N1CC1)N1CC1)CC2` (stereo not shown) [Example 148], for which the concentration for half-maximal inhibition (IC50) in assay [1] was 955 nM; in assay [2] (setting [3]), < 10 nM.
For `O=[N+]([O-])c1ccc2c(c1Oc1cccc(-c3ncc(F)cn3)c1)CCC2OP(=O)(N1CC1)N1CC1` (stereo not shown) [Example 86] the same measures were 1230 nM and 10 to 50 nM.
For `O=[N+]([O-])c1ccc2c(c1Oc1ccc(C(F)(F)F)nc1)CCC2OP(=O)(N1CC1)N1CC1` (stereo not shown) [Example 25] the same measures were 92.9 nM and < 10 nM.
As for `C[C@H](OP(=O)(N1CC1)N1CC1)c1cc2cc(Oc3cccc(C(=O)N4CCOCC4)c3)c([N+](=O)[O-])cc2o1` [Example 557], the IC50 in assay [1] is 7310 nM; in assay [2] (H460 cells), 10 to 50 nM.
As for `O=[N+]([O-])c1ccc2c(c1Oc1ccc(-c3ccc(Cl)cc3)cc1)CC[C@H]2OP(=O)(N1CC1)N1CC1` [Example 270], the figures for the IC50 in assay [1] and in assay [2] (H460 cells) were 5550 nM and 10 to 50 nM, respectively.
Take `CC(OP(=O)(N1CC1)N1CC1)c1cc(Oc2ccc(C(=O)N(C)C)cc2)c([N+](=O)[O-])cc1F` (stereo not shown) [Example 8]: the half-maximal inhibitory concentration (IC50) is 1790 nM in assay [1] and < 10 nM in assay [2] (setting [3]).
For `Cc1nc2cc(Oc3c([N+](=O)[O-])ccc4c3CC[C@H]4OP(=O)(N3CC3)N3CC3)ccc2n1C` [Example 392] the same measures were 785 nM and < 10 nM.
Consider `COc1ccc(Oc2c([N+](=O)[O-])ccc3c2CCC3OP(=O)(N2CC2)N2CC2)cc1OC1CC1` (stereo not shown) [Example 483], for which the figures for the IC50 in assay [1] and in assay [2] (H460 cells) were 735 nM and < 10 nM, respectively.
Regarding `O=[N+]([O-])c1cc2c(cc1Oc1ccc(-c3ccccn3)cc1)C(OP(=O)(N1CC1)N1CC1)CC2` (single isomer, unassigned) [Example 188], the IC50 in assay [1] was 2070 nM; in assay [2] (setting [3]), < 10 nM.
With `Cn1c(=O)oc2cc(Oc3c([N+](=O)[O-])ccc4c3CCC4OP(=O)(N3CC3)N3CC3)ccc21` (stereo not shown) [Example 121], the IC50 in assay [1] is 33.8 nM; in assay [2] (setting [3]) it was < 10 nM.
For the compound `CN1CCc2ccc(Oc3cc4c(cc3[N+](=O)[O-])OCCC4OP(=O)(N3CC3)N3CC3)cc2C1=O` (stereo not shown) [Example 200], the concentration for half-maximal inhibition (IC50) in assay [1] is 434 nM; in assay [2] (setting [3]) it was 10 to 50 nM.
Turning to `Cn1cc(-c2cccc(Oc3c([N+](=O)[O-])ccc4c3CCC4OP(=O)(N3CC3)N3CC3)c2)cn1` (racemic) [Example 299], the values for the IC50 in assay [1] and in assay [2] (H460 cells) were 744 nM and < 10 nM, respectively.
For `Cc1cncc(-c2ccc(Oc3c([N+](=O)[O-])ccc4c3CCC4OP(=O)(N3CC3)N3CC3)cc2)n1` (racemic) [Example 281] the same measures were 787 nM and < 10 nM.
For `CNC(=O)c1ccc(Oc2c([N+](=O)[O-])ccc3c2OCCC3OP(=O)(N2CC2)N2CC2)cc1` (stereo not shown) [Example 137] the same measures were 538 nM and < 10 nM.
For `Cn1c(-c2cccc(Oc3c([N+](=O)[O-])ccc4c3CCC4OP(=O)(N3CC3)N3CC3)c2)cccc1=O` (stereo not shown) [Example 75], the IC50 in assay [1] is 2720 nM; in assay [2] (H460 cells) it was 10 to 50 nM.
Turning to `Cn1cnc2cc(Oc3c([N+](=O)[O-])ccc4c3CC[C@@H]4OP(=O)(N3CC3)N3CC3)ccc21` [Example 396], the IC50 was 2480 nM in assay [1] and 10 to 50 nM in assay [2] (Homo sapiens, NCI-H460, H460 cells).
Turning to `O=C(NC1CCC1)c1ccc(Oc2c([N+](=O)[O-])ccc3c2CC[C@H]3OP(=O)(N2CC2)N2CC2)cc1` [Example 262], the IC50 in assay [1] is 945 nM; in assay [2] (H460 cells), < 10 nM.
For the compound `O=C(c1cccc(Oc2c([N+](=O)[O-])ccc3c2CCC3OP(=O)(N2CC2)N2CC2)c1)N1CCCCC1` (stereo not shown) [Example 238], the 50% inhibitory concentration (IC50) in assay [1] was 1160 nM; in assay [2] (H460 cells), < 10 nM.
As for `O=[N+]([O-])c1ccc2c(c1Oc1cccc(-c3ccccc3)c1)CCC2OP(=O)(N1CC1)N1CC1` (single isomer, unassigned) [Example 30], the half-inhibitory concentration (IC50) in assay [1] is 1510 nM; in assay [2] (setting [3]), < 10 nM.
